Broadly, the IC50 is the midpoint of a concentration-inhibition curve.

The structures appear in SMILES notation.

Here are results for 18 molecules from US12662491B2 (Redona Therapeutics, Inc., priority 2020, dated 2026).

The test deals with T1, Zcchc11 enzyme (Homo sapiens, UniProt Q5TAX3).
T1 construct: made in house; host or cells: HEK293 cells (Zcchc11); E. coli Rosetta II (LIN28A)
T1 sequence (Q5TAX3 212-1420): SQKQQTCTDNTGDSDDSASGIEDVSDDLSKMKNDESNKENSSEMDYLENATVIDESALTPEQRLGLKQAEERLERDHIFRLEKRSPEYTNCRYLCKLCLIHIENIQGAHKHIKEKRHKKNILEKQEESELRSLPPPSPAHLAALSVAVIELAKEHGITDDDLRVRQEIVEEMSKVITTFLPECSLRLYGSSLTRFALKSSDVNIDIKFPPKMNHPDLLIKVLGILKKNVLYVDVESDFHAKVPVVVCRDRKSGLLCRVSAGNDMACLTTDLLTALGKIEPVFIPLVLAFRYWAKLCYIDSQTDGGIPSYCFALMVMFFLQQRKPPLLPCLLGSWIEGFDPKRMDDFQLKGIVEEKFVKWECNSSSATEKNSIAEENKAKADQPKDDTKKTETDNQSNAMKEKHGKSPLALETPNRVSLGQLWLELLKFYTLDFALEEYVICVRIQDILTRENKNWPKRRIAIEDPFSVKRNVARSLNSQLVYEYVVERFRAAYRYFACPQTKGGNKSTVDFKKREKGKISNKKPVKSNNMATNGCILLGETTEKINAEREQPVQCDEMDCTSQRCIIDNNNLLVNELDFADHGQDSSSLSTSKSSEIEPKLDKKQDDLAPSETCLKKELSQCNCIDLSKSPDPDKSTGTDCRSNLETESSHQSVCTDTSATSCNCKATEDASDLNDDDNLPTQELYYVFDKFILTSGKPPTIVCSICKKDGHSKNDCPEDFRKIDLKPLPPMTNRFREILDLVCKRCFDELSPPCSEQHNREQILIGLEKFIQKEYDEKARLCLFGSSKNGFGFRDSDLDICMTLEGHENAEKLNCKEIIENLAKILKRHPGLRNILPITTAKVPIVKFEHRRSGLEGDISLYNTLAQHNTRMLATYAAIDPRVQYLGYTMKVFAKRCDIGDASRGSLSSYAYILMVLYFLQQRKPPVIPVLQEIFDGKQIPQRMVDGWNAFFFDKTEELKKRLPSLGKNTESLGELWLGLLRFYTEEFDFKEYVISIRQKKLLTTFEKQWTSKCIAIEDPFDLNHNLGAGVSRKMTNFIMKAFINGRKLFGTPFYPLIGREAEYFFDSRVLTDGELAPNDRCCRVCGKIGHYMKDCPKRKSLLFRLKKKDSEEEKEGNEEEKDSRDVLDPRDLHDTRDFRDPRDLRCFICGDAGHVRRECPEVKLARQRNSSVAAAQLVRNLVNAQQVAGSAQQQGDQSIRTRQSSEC
The test is described as follows: TUTase assay (Zcchc11 assay, Lin28a-dependent polyuridylation of pre-let-7). Particulars: Lin28a-dependent Zcchc11 (Z11) TUTase assay; read-out: Potency Lin28a-dep Z11 IC50. Format: biochemical. Summed up:
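Readout: time-dependent quench of 5′-fluorescein pre-let-7 (2 nM) as 3′-rhodamine A20 probe anneals to poly(U) tails. Enzyme 0.2 nM Zcchc11 (res. 212-1420), LIN28A 10 nM, UTP 5 uM; pH 7.3 HEPES, 150 mM KCl, 5 mM MgCl2, RT. 4-parameter IC50; 100% = DMSO, 0% = no UTP.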

For the molecule `O=C(O)c1cn(-c2ccc(F)c(O)c2)c2cc(N3CCC[C@@H]3COc3ccccn3)c(F)cc2c1=O` [Example 534, (R)-6-fluoro-1-(4-fluoro-3-hydroxyphenyl)-4-oxo-7-(2-((pyridin-2-yloxy)methyl)pyrrolidin-1-yl)-1,4-dihydroquinoline-3-carboxylic acid], the half-inhibitory concentration (IC50) is at most 1 µM. Turning to `O=C(O)c1cn(C2CCn3ccnc3C2)c2cc(N3CCC[C@@H]3COc3ncccc3Cl)c(Br)cc2c1=O` (stereo partly drawn) [Example 536, 6-bromo-7-((R)-2-(((3-chloropyridin-2-yl)oxy)methyl)pyrrolidin-1-yl)-4-oxo-1-(5,6,7,8-tetrahydroimidazo [1,2-a]pyridin-7-yl)-1,4-dihydroquinoline-3-carboxylic acid], the concentration for half-maximal inhibition (IC50) was at most 1 µM. Next, `CN(C)C1CN(c2ccc(-n3cc(C(=O)O)c(=O)c4cc(Br)c(N5CCC[C@@H]5COc5ncccc5Cl)cc43)cn2)C1` [Example 537, (R)-6-bromo-7-(2-(((3-chloropyridin-2-yl)oxy)methyl)pyrrolidin-1-yl)-1-(6-(3-(dimethylamino)azetidin-1-yl)pyridin-3-yl)-4-oxo-1,4-dihydroquinoline-3-carboxylic acid]: at most 1 µM. As for `N#Cc1cc2c(=O)c(C(=O)O)cn(-c3cnccn3)c2cc1N1CCC[C@@H]1COc1ncccc1Cl` [Example 538, (R)-7-(2-(((3-chloropyridin-2-yl)oxy)methyl)pyrrolidin-1-yl)-6-cyano-4-oxo-1-(pyrazin-2-yl)-1,4-dihydroquinoline-3-carboxylic acid], the half-inhibitory concentration (IC50) was at most 1 µM. Turning to `COCCNc1ccc(-n2cc(C(=O)O)c(=O)c3cc(C#N)c(N4CCC[C@@H]4COc4ncccc4Cl)cc32)cn1` [Example 539, (R)-7-(2-(((3-chloropyridin-2-yl)oxy)methyl)pyrrolidin-1-yl)-6-cyano-1-(6-((2-methoxyethyl)amino)pyridin-3-yl)-4-oxo-1,4-dihydroquinoline-3-carboxylic acid], the concentration for half-maximal inhibition (IC50) is at most 1 µM. For the molecule `N#Cc1cc2c(=O)c(C(=O)O)cn(C3CCn4ccnc4C3)c2cc1N1CCC[C@@H]1COc1ncccc1Cl` (stereo partly drawn) [Example 540, 7-((R)-2-(((3-chloropyridin-2-yl)oxy)methyl)pyrrolidin-1-yl)-6-cyano-4-oxo-1-(5,6,7,8-tetrahydroimidazo [1,2-a]pyridin-7-yl)-1,4-dihydroquinoline-3-carboxylic acid], the concentration for half-maximal inhibition (IC50) is at most 1 µM.

As to `O=C(O)c1cn(-c2ccncn2)c2cc(N3CCC[C@@H]3COc3ncccc3Cl)c(Cl)cc2c1=O` [Example 541, (R)-6-chloro-7-(2-(((3-chloropyridin-2-yl)oxy)methyl)pyrrolidin-1-yl)-4-oxo-1-(pyrimidin-4-yl)-1,4-dihydroquinoline-3-carboxylic acid], the 50% inhibitory concentration (IC50) is at most 1 µM. `CN(C)C1CN(c2ccc(-n3cc(C(=O)O)c(=O)c4cc(C#N)c(N5CCC[C@@H]5COc5ncccc5Cl)cc43)cn2)C1` [Example 542, (R)-7-(2-(((3-chloropyridin-2-yl)oxy)methyl)pyrrolidin-1-yl)-6-cyano-1-(6-(3-(dimethylamino)azetidin-1-yl)pyridin-3-yl)-4-oxo-1,4-dihydroquinoline-3-carboxylic acid]: the IC50 is at most 1 µM. Consider `O=C(O)c1cn(-c2ccnc(N3CCC3)c2)c2nc(N3CCC[C@@H]3COc3ncccc3Cl)c(Cl)cc2c1=O` [Example 543, (R)-1-(2-(azetidin-1-yl)pyridin-4-yl)-6-chloro-7-(2-(((3-chloropyridin-2-yl)oxy)methyl)pyrrolidin-1-yl)-4-oxo-1,4-dihydro-1,8-naphthyridine-3-carboxylic acid], for which the IC50 is at most 1 µM.

As for `CN(C)C1CN(c2cc(-n3cc(C(=O)O)c(=O)c4cc(Cl)c(N5CCC[C@@H]5COc5ncccc5Cl)nc43)ccn2)C1` [Example 544, (R)-6-chloro-7-(2-(((3-chloropyridin-2-yl)oxy)methyl)pyrrolidin-1-yl)-1-(2-(3-(dimethylamino)azetidin-1-yl)pyridin-4-yl)-4-oxo-1,4-dihydro-1,8-naphthyridine-3-carboxylic acid], the IC50 was at most 1 µM.

With `Cc1cc2c(=O)c(C(=O)O)cn(-c3ccc(N4CC(N(C)C)C4)nc3)c2cc1N1CCC[C@@H]1COc1ncccc1C` [Example 545, (R)-1-(6-(3-(dimethylamino)azetidin-1-yl)pyridin-3-yl)-6-methyl-7-(2-(((3-methylpyridin-2-yl)oxy)methyl)pyrrolidin-1-yl)-4-oxo-1,4-dihydroquinoline-3-carboxylic acid], the IC50 is at most 1 µM. The figure for `CCc1cc2c(=O)c(C(=O)O)cn(-c3ccc(N4CC(N(C)C)C4)nc3)c2cc1N1CCC[C@@H]1COc1ncccc1Cl` [Example 546, (R)-7-(2-(((3-chloropyridin-2-yl)oxy)methyl)pyrrolidin-1-yl)-1-(6-(3-(dimethylamino)azetidin-1-yl)pyridin-3-yl)-6-ethyl-4-oxo-1,4-dihydroquinoline-3-carboxylic acid] is at most 1 µM. In the case of `CN(C)C1CN(c2cc(-n3cc(C(=O)O)c(=O)c4cc(Cl)c(N5CCC[C@@H]5COc5ncccc5Cl)cc43)ccn2)C1` [Example 548, (R)-6-chloro-7-(2-(((3-chloropyridin-2-yl)oxy)methyl)pyrrolidin-1-yl)-1-(2-(3-(dimethylamino)azetidin-1-yl)pyridin-4-yl)-4-oxo-1,4-dihydroquinoline-3-carboxylic acid], the half-inhibitory concentration (IC50) was at most 1 µM. Take `O=C(O)c1cn(-c2cnc3[nH]ncc3n2)c2cc(N3CCC[C@@H]3COc3ncccc3Cl)c(Cl)cc2c1=O` [Example 549, (R)-6-chloro-7-(2-(((3-chloropyridin-2-yl)oxy)methyl)pyrrolidin-1-yl)-4-oxo-1-(1H-pyrazolo[3,4-b]pyrazin-5-yl)-1,4-dihydroquinoline-3-carboxylic acid]: the half-maximal inhibitory concentration (IC50) was at most 1 µM. As to `CCc1cc2c(=O)c(C(=O)O)cn(-c3cnccn3)c2cc1N1CCC[C@@H]1COc1ncccc1Cl` [Example 551, (R)-7-(2-(((3-chloropyridin-2-yl)oxy)methyl)pyrrolidin-1-yl)-6-ethyl-4-oxo-1-(pyrazin-2-yl)-1,4-dihydroquinoline-3-carboxylic acid], the IC50 is at most 1 µM. For the molecule `O=C(O)c1cn(-c2ccnc(N3CCC3)c2)c2cc(N3CCC[C@@H]3COc3ccccn3)c(Cl)cc2c1=O` [Example 553, (R)-1-(2-(azetidin-1-yl)pyridin-4-yl)-6-chloro-4-oxo-7-(2-((pyridin-2-yloxy)methyl)pyrrolidin-1-yl)-1,4-dihydroquinoline-3-carboxylic acid], the IC50 was at most 1 µM. The figure for `O=C(O)c1cn(-c2ccnc(N3CCC3)c2)c2cc(N3CCC[C@@H]3COc3ncccc3Cl)c(Cl)cc2c1=O` [Example 554, (R)-1-(2-(azetidin-1-yl)pyridin-4-yl)-6-chloro-7-(2-(((3-chloropyridin-2-yl)oxy)methyl)pyrrolidin-1-yl)-4-oxo-1,4-dihydroquinoline-3-carboxylic acid] is at most 1 µM; for `Nc1ncc(-n2cc(C(=O)O)c(=O)c3cc(Cl)c(N4CCC[C@@H]4COc4ncccc4Cl)cc32)cn1` [Example 555, (R)-1-(2-aminopyrimidin-5-yl)-6-chloro-7-(2-(((3-chloropyridin-2-yl)oxy)methyl)pyrrolidin-1-yl)-4-oxo-1,4-dihydroquinoline-3-carboxylic acid] it is at most 1 µM.
